Test results reported in US20230054318A1, “PERSONALIZED TUMOR VACCINE AND USE THEREOF FOR CANCER IMMUNOTHERAPY” (priority 2019, published 2023).

Test: Human Equivalent Dose (HED) calculation based on body surface area
Conditions: for Animal NOAEL: mouse (~20 g)
From the text: Provided herein are methods for calculating HED of the MBTA components based on body surface area.
See details from: Nair A B, Jacob S. A simple practice guide for dose conversion between animals and human. J Basic Clin Pharma 2016; 7:27-31
A formula to calculate HED is shown as follows:
HED(mg/kg)=Animal dose(mg/kg)Animal Km/Human Km

| Compound | NOAEL (mouse) | Animal NOAEL | HED/Safety Factor (10) | Maximum Recommended Starting Dose (MRSD, assuming 60 kg adult) | HED (Mouse Km=3, Human Km=37) |
| --- | --- | --- | --- | --- | --- |
| CCOCc1nc2c(N)nc3ccccc3c2n1CC(C)(C)O [R-848, Resiquimod, reference compound] | 1.2 mg/kg | – | – | – | – |
| Lipoteichoic acid [LTA, reference compound] | – | 1.2 mg/kg | – | – | – |
| Mannan | – | 47.5 mg/kg | 0.3851 mg/kg | 23.11 mg/day | 3.851 mg/kg |
